Values after ≈ are worked out from the molar mass of the structure shown.
Legend:
LANA = target: LANA; parameters: method as in PMID 30888817; details: cited from earlier work
[1] = target: T1, oligomerization-deficient mutant of a LANA C-terminal protein fragment (aa 1008–1146) (Human herpesvirus 8 (Kaposi's sarcoma-associated herpesvirus), UniProt Q76SB0); assay: Microscale thermophoresis (MST) binding assay; parameters: species or system Kaposi's sarcoma-associated herpesvirus (KSHV); details: read-out: KD value (MST); LANA aa 1008–1146 mutant; means of at least three replicates
T1 sequence (Q76SB0 1008-1146): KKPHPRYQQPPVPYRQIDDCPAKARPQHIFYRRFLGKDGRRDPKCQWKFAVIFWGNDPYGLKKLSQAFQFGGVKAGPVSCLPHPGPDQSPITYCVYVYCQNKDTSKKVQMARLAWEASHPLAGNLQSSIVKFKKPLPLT
Text: (§1) In these assays, an oligomerization-deficient mutant of a LANA C-terminal protein fragment (aa 1008–1146) and an oligonucleotide representing LANA-binding site (LBS) 1 were used, which are convenient to use and handle for the described biophysical methods, while maintaining the essential DNA-binding interface.[25]
Equation y = A2 + (A1-A2)/(1 + (x/x0)^p)
1.3 Microscale Thermophoresis (MST) Assay
Microscale Thermophoresis Assay was done as mentioned in a previous publication. 2

[2] = target: LANA–DNA interaction (oligomerization-deficient LANA DBD aa 1008–1146 mutant / LBS1) (Human herpesvirus 8 (Kaposi's sarcoma-associated herpesvirus), UniProt Q76SB0); assay: Electrophoretic mobility shift assay (EMSA), LANA DBD mutant with LBS1 oligonucleotide; assay type: biochemical, Kaposi's sarcoma-associated herpesvirus (KSHV); details: compound at 250 μM; LBS1 oligonucleotide; LANA aa 1008–1146 mutant
Protocol: as §1
Equation y = A2 + (A1-A2)/(1 + (x/x0)^p) […]
1.4 Electrophoretic Mobility Shift Assay (EMSA)
The EMSA was carried out with slight modific ations as described previously 2 based on the assay in Hellert et al. (2013). 3 His-tagged oligomerization-deficient LANA DBD (aa1008-1146) mutant protein or LANA DBD (aa934-1162) wild type protein (200 nM final) was incubated with a 5´-Dy682-labeled double stranded DNA probe (IBA Lifesciences) (20 nM final) for 30 minutes at RT in the dark. The reaction buffer consisted of 30 mM Tris HCl pH 7.5, 50 mM KCl, 10 mM MgCl2, 1 mM DTT, 1 mM EDTA, 10% glycerol, 0.25% Tween20, 0.5 mg/mL BSA and 0.05 mg/mL poly(dI-dC). […]
dark. 10 µL of the reaction was run on a pre -run native 5% acrylamide gel for 45 minutes at 100V with tris-borate-EDTA buffer. Images of the gels were acquired and analysed with the Odyssey (Licor) using the Image Studio software.
Fig S2: Gels of EMSA experiments at 250 μM for all compounds (A) and dose-dependent curves for compound 20 using LANA DBD mutant (B) and LANA wildtype (C) as well as LBS1. Values are means […]
Gleichung y = A2 + (A1-A2)/(1 + (x/x0)^p) […]

Kinetic solubility = assay type: physicochemical; details: PBS with 1% DMSO; 1% DMSO in PBS, pH 7.4
Protocol: (§2) The next step was an in vitro ADMET profiling of the best seven compounds so far: 9, 11, 14, 19, 20, 21, and 27. The compounds were tested for their kinetic solubility (1% DMSO in PBS, pH 7.4), lipophilicity (chromatographic Log D7.4 value), cellular permeability (using Caco-2 cells), and metabolic stability (using mouse and human liver S9 fractions) (see Table 3).
The desired compounds were sequentially diluted in DMSO in a 96-well plate. 1.5 µL of each well were transferred into another 96-well plate and mixed with 148.5 µL of PBS. Plates were shaken for 5 min at 600 rpm at room temperature (r.t.), and the absorbance at 620 nm was measured. Absorbance values were normalized by blank subtraction and plotted using GraphPad Prism 8.4.2 (GraphPad Software, San Diego, CA, USA). Solubility (S) was determined based on the First X value of AUC function using a threshold of 0.005. […]

Chromatographic LogD7.4 = assay type: physicochemical; details: reversed-phase HPLC, NUCLEODUR C18 Pyramid column; pH 7.4, HPLC-MS based; read-out: Chrom. LogD7.4
Protocol: as §2, with “3). […]” for “3).”
LogD7.4 was analyzed using an HPLC−MS based method. The retention time of 12 compounds with known LogD7.4 was determined and plotted toward their LogD7.4. Linear regression was used to determine the LogD7.4 of unknown compounds. Analysis was performed using a Dionex Ultimate 3000 HPLC system coupled to a TSQ Quantum Access MAX (Thermo Fisher, Dreieich, Germany) with the following conditions: EC150/2 NUCLEODUR C18 Pyramid column, 5 μM (Macherey Nagel, Düren, Germany); eluent A: 50 mM NH4OAc pH 7.4, eluent B: acetonitrile, and flow: 0.6 mL/min. The gradient was set to 0−100% B from 0 to 2.5 min, […]
are means of two replicates. […]

Caco-2 cell permeability = assay type: in vitro ADME; details: human, pH 7.4, Caco-2 monolayer, apical to basolateral
Protocol: as §2
MTT Assay: Viability of HEK293 cells ~48 hours after treatment […]
Fig S4: MTT assay for compounds 11, 14, 19, 20 and 21 using HEK293 cells. Values are means of […]
Permeability of the compounds was assessed using Caco2 monolayers grown on Transwell® (3460 Costar, Corning). In brief, cells were seeded 60.000 cells/well in 12-well Transwell plates in DMEM medium supplemented with 10% FCS and 1% NEAA. Cells were grown for 7 to 9 days with medium replacement every other day until they reached a tight monolayer. Tightness was defined as transepithelial resistance (TEER) values >300 Ω/cm² (measured using an EVOM Volt-Ohmmeter, World Precision Instruments). At the day of permeability as say, the compound stock solutions in DMSO were diluted to 10µM in Krebs -Ringer-buffer (KRB, pH 7.4). Cells treated with KRB only served as control. Monolayer was washed two times with prewarmed KRB and incubated with 500 µl sample on the apical compartment. Samples from the basolateral side were drawn at t = 0, 15, 30, 60, 120, 180 and 300 min and replaced with fresh buffer. The plates were incubated for 5 h in a cell culture incubator with lateral shaking (200 rpm). TEER values were measured again at the end of the permeability test. Compound concentration was determined with HPLC-ESI-MS/MS in SRM mode and calculated for the cumulative transport. Values are means of three replicates.

[3] = Metabolic stability in mouse liver S9 fraction; assay type: in vitro ADME; details: pooled liver S9 fraction, mouse liver S9, 1 μM compound; for microsomal CLint at 1 µM: read-out: MetStab Mouse Liver S9 Clint; for half-life at 1 µM: read-out: MetStab Mouse Liver S9 t1/2
Protocol: as §2, with “3). […]” for “3).”
(§3) 1.7 Metabolic Stability in Liver S9 Fractions
(§4) For the evaluation of combined phase I and phase II metabolic stability, the compound (1 μM) was incubated with 1 mg/mL pooled mouse liver S9 fraction (Xenotech, Kansas City, USA) or human liver S9 fraction (Corning, USA), 2 mM NADPH, 1 mM UDPGA, 10 mM MgCl 2, 5 mM GSH and 0.1 mM PAPS at 37 °C for 240 min. The metabolic stability of testosterone, verapamil and ketoconazole were determined in parallel to confirm the enzymatic activity of mouse S9 fractions, for human S9 testosterone, diclofenac and propranolol were used. The incubation was stopped after defined time points by precipitation of aliquots of S9 enzymes with 2 volumes of cold acetonitrile containing internal standard (150 nM diphenhydramine). Samples were stored on ice until the end of the incubation and precipitated protein was removed by centrifugation (15 min, 4 °C, 4,000 g). Concentration of the remaining test compound at the different time points was analyzed by HPLC-MS/MS (TSQ Quantum Access MAX, Thermo Fisher, Dreieich, Germany) and used to determine half -life (t1/2). Values are means of three

[4] = Metabolic stability in human liver S9 fraction; assay type: in vitro ADME; details: human liver S9, 1 μM compound; for microsomal CLint at 1 µM: read-out: MetStab Human Liver S9 Clint; for half-life at 1 µM: read-out: MetStab Human Liver S9 t1/2
Protocol: as §2, with “3). […]” for “3).”
as §3, §4

O=C(O)c1ccc(-c2cn(-c3cccnc3)nn2)cc1 [hit I]
Kd (LANA): 23 µM

COc1ccc(-c2cc(C)c(-n3cc(-c4ccc(C(=O)O)cc4)nn3)cn2)cc1 [Compound 19]
Kd [1]: 5.4 ± 1.8 µM
Inhibition (EMSA, LBS1) @250 μM [2]: 69%
solubility kinetic at 5 min (Kinetic solubility): > 200 µM
chromatographic logD (Chromatographic LogD7.4): 0.46
Papp A→B at 5 h, 10 µM (Caco-2 cell permeability): 16.5 ± 4.7 ×10⁻⁶ cm/s
microsomal CLint at 1 µM [3]: < 5.8 µL/min/mg
half-life at 1 µM [3]: > 120 min
microsomal CLint at 1 µM [4]: < 5.8 µL/min/mg
half-life at 1 µM [4]: > 120 min

Cc1cc(-c2ccc(C(=O)O)cc2)ncc1-n1cc(-c2ccc(C(=O)O)cc2)nn1 [Compound 27]
Kd [1]: 11.4 ± 3.6 µM
Inhibition (EMSA, LBS1) @250 μM [2]: 98%
solubility kinetic at 5 min (Kinetic solubility): > 200 µM
chromatographic logD (Chromatographic LogD7.4): -1.92
Papp A→B at 5 h, 10 µM (Caco-2 cell permeability): 0.5 ± 0.2 ×10⁻⁶ cm/s
microsomal CLint at 1 µM [3]: < 5.8 µL/min/mg
half-life at 1 µM [3]: > 120 min
microsomal CLint at 1 µM [4]: < 5.8 µL/min/mg
half-life at 1 µM [4]: > 120 min

COc1ncc(C)cc1-c1cc(C)c(-n2cc(-c3ccc(C(=O)O)cc3)nn2)cn1 [Compound 11]
Kd [1]: 18.8 ± 2.1 µM
Inhibition (EMSA, LBS1) @250 μM [2]: 96%
solubility kinetic at 5 min (Kinetic solubility): > 200 µM
chromatographic logD (Chromatographic LogD7.4): 0.42
Papp A→B at 5 h, 10 µM (Caco-2 cell permeability): 9.6 ± 1.4 ×10⁻⁶ cm/s
microsomal CLint at 1 µM [3]: < 5.8 µL/min/mg
half-life at 1 µM [3]: > 120 min
microsomal CLint at 1 µM [4]: < 5.8 µL/min/mg
half-life at 1 µM [4]: > 120 min

Cc1cc(-c2ccccc2O)ncc1-n1cc(-c2ccc(C(=O)O)cc2)nn1 [Compound 21]
Kd [1]: 18.8 ± 2.2 µM
Inhibition (EMSA, LBS1) @250 μM [2]: 94%
solubility kinetic at 5 min (Kinetic solubility): 137 ± 20 µM (≈ 51 µg/mL)
chromatographic logD (Chromatographic LogD7.4): 0.62
Papp A→B at 5 h, 10 µM (Caco-2 cell permeability): 8.8 ± 1.1 ×10⁻⁶ cm/s
microsomal CLint at 1 µM [3]: < 5.8 µL/min/mg
half-life at 1 µM [3]: > 120 min
microsomal CLint at 1 µM [4]: < 5.8 µL/min/mg
half-life at 1 µM [4]: > 120 min

COc1cncc(-c2cc(C)c(-n3cc(-c4ccc(C(=O)O)cc4)nn3)cn2)c1 [Compound 9]
Kd [1]: 11 ± 1.9 µM
Inhibition (EMSA, LBS1) @250 μM [2]: 97%
solubility kinetic at 5 min (Kinetic solubility): 139 ± 18 µM (≈ 53.8 µg/mL)
chromatographic logD (Chromatographic LogD7.4): -0.36
Papp A→B at 5 h, 10 µM (Caco-2 cell permeability): 2 ± 0.5 ×10⁻⁶ cm/s
microsomal CLint at 1 µM [3]: < 5.8 µL/min/mg
half-life at 1 µM [3]: > 120 min
microsomal CLint at 1 µM [4]: < 5.8 µL/min/mg
half-life at 1 µM [4]: > 120 min
